The values that follow come from ChEMBL document CHEMBL1667750, “Synthesis and biological activity of 7H-benzo[4,5]indolo[2,3-b]-quinoxaline derivatives” (Eur J Med Chem, 2011).

Activity calls are given as the source filed them. The calls are words filed in the database; no cut-off is given here.

For data set [1], the system named is Vesicular stomatitis virus. Kind of data set: Antiviral activity against VSV infected in mouse L929 cells assessed as protection against virus-induced cytopathic effect treated immediately after viral infection at 5.5 uM. The format is functional.
The test system of another data set is L929. As to the kind of experiment: Decrease in interferon inducing activity in VSV infected in mouse L929 cells at 1.1 uM. The data set is classed as functional, cell-based.
In a further data set the test system is Calf thymus DNA. Kind of data set: Binding affinity to calf thymus DNA by ethidium bromide displacement assay. Particulars: for logKa: Bos taurus. The format is nucleic-acid assay, Bos taurus.
Data set [2] relates to Vesicular stomatitis virus. Kind of data set: Antiviral activity against VSV infected in mouse L929 cells assessed as protection against virus-induced cytopathic effect treated 24 hrs before viral infection at 0.2 uM. The format is functional.
The test system of data set [3] is Vesicular stomatitis virus. As to the kind of experiment: Antiviral activity against VSV infected in mouse L929 cells assessed as protection against virus-induced cytopathic effect treated 24 hrs before viral infection at 13 uM. The data set is classed as functional.
The test system of data set [4] is Vesicular stomatitis virus. Kind of data set: Antiviral activity against VSV infected in mouse L929 cells assessed as protection against virus-induced cytopathic effect treated immediately after viral infection at 12.5 uM. The format is functional.
Data set [5] in a line: Cytotoxicity against mouse L929 cells. The data set is classed as cell-based.
The subject of data set [6] is Vesicular stomatitis virus. Kind of data set: Antiviral activity against VSV infected in mouse L929 cells assessed as protection against virus-induced cytopathic effect treated 24 hrs before viral infection at 53 uM. The format is functional.
The subject of data set [7] is Vesicular stomatitis virus. Kind of data set: Antiviral activity against VSV infected in mouse L929 cells assessed as protection against virus-induced cytopathic effect treated immediately after viral infection at 6.7 uM. The format is functional.
The subject of data set [8] is Vesicular stomatitis virus. Kind of data set: Antiviral activity against VSV infected in mouse L929 cells assessed as protection against virus-induced cytopathic effect treated 24 hrs before viral infection at 30 uM. The data set is classed as functional.
In data set [9] the test system is Vesicular stomatitis virus. As to the kind of experiment: Antiviral activity against VSV infected in mouse L929 cells assessed as protection against virus-induced cytopathic effect treated immediately after viral infection at 15 uM. The format is functional.
The test system of data set [10] is Vesicular stomatitis virus. As to the kind of experiment: Antiviral activity against VSV infected in mouse L929 cells assessed as protection against virus-induced cytopathic effect treated 24 hrs before viral infection at 110 uM. The data set is classed as functional.
The test system of data set [11] is Vesicular stomatitis virus. As to the kind of experiment: Antiviral activity against VSV infected in mouse L929 cells assessed as protection against virus-induced cytopathic effect treated immediately after viral infection at 27.5 uM. The format is functional.
Data set [12] deals with Vesicular stomatitis virus. Kind of data set: Antiviral activity against VSV infected in mouse L929 cells assessed as protection against virus-induced cytopathic effect treated immediately after viral infection at 6.2 uM. The format is functional.
Data set [13] concerns Vesicular stomatitis virus. Kind of data set: Antiviral activity against VSV infected in mouse L929 cells assessed as protection against virus-induced cytopathic effect treated 24 hrs before viral infection at 3.1 uM. The format is functional.
For data set [14], the system named is Vesicular stomatitis virus. Kind of data set: Antiviral activity against VSV infected in mouse L929 cells assessed as protection against virus-induced cytopathic effect treated immediately after viral infection at 25 uM. The format is functional.
In data set [15] the test system is Vesicular stomatitis virus. As to the kind of experiment: Antiviral activity against VSV infected in mouse L929 cells assessed as protection against virus-induced cytopathic effect treated 24 hrs before viral infection at 6.2 uM. The format is functional.
For data set [16], the system named is Vesicular stomatitis virus. As to the kind of experiment: Antiviral activity against VSV infected in mouse L929 cells assessed as protection against virus-induced cytopathic effect treated immediately after viral infection at 21.4 uM. The data set is classed as functional.
Data set [17] has as its system Vesicular stomatitis virus. As to the kind of experiment: Antiviral activity against VSV infected in mouse L929 cells assessed as protection against virus-induced cytopathic effect treated immediately after viral infection at 50 uM. The data set is classed as functional.
Data set [18] has as its system Vesicular stomatitis virus. Kind of data set: Antiviral activity against VSV infected in mouse L929 cells assessed as protection against virus-induced cytopathic effect treated 24 hrs before viral infection at 3 uM. The format is functional.
For data set [19], the system named is Vesicular stomatitis virus. Kind of data set: Antiviral activity against VSV infected in mouse L929 cells assessed as protection against virus-induced cytopathic effect treated immediately after viral infection at 21.3 uM. The format is functional.
The subject of data set [20] is Vesicular stomatitis virus. As to the kind of experiment: Antiviral activity against VSV infected in mouse L929 cells assessed as protection against virus-induced cytopathic effect treated 24 hrs before viral infection at 113 uM. The format is functional.
In data set [21] the test system is Vesicular stomatitis virus. As to the kind of experiment: Antiviral activity against VSV infected in mouse L929 cells assessed as protection against virus-induced cytopathic effect treated immediately after viral infection at 7.1 uM. The data set is classed as functional.

For `c1ccc2c(c1)ccc1c2c2nc3ccccc3nc2n1CCN1CCOCC1`, in data set [1], the maximal effect (Emax) at 5.5 µM stood at 50%. In addition, the outcome in the data set with L929 was Active. In the data set with Calf thymus DNA, this molecule came in with a pIC50 of 4.84 and a logKa of 6.94. The maximal response (Emax) at 0.2 µM in [2] was found to be 10%.

Regarding `CC1CCN(CCn2c3ccccc3c3nc4ccccc4nc32)CC1`, in the data set on L929, the result was Active. In the data set on Calf thymus DNA, this molecule came in with a negative-log IC50 (pIC50) of 3.88 and a logKa of 5.98. In addition, in data set [3], the maximal effect (Emax) at 13 µM was 90%. Further, the Emax at 12.5 µM in data set [4] was 50%.

Take `CC1CCCCN1CCn1c2ccc3ccccc3c2c2nc3ccccc3nc21` (stereo not drawn): the result in the data set with L929 was Active. In the data set on Calf thymus DNA, this molecule displayed a pIC50 of 4.73 and a logKa of 6.83. Further, half-maximal cytotoxicity in data set [5] (CC50) was put at 113 µM. For the same molecule, the Emax at 53 µM in [6] turned out to be 20%. Further, the Emax at 6.7 µM in data set [7] came to 50%.

Regarding `CN(C)CCn1c2ccc3ccccc3c2c2nc3ccccc3nc21`, the result with L929 was Active. Also, in the data set on Calf thymus DNA, the pIC50 was 4.84 and the logKa was determined as 6.94. Further, the CC50 in data set [5] came out at 49.9 µM. For the same molecule, the Emax at 30 µM in [8] was found to be 21%. In addition, in data set [9], the maximum response (Emax) at 15 µM amounted to 45%.

With `CN1CCN(CCn2c3ccc4ccccc4c3c3nc4ccccc4nc32)CC1`, the outcome with L929 was Active. In the data set with Calf thymus DNA, this molecule showed a pIC50 of 4.84 and a logKa of 6.94. Also, half-maximal cytotoxicity in data set [5] (CC50) was put at 21.4 µM. In data set [3], the Emax at 13 µM stood at 17%. In data set [7], the Emax at 6.7 µM is 80%.

For `c1ccc2c(c1)ccc1c2c2nc3ccccc3nc2n1CCN1CCCCC1`, the result in the data set on L929 was Active. Moreover, in the data set on Calf thymus DNA, the negative-log IC50 (pIC50) is 4.51 and the logKa was 6.61. Moreover, in data set [5], the half-maximal cytotoxic concentration (CC50) was > 221 µM. Moreover, the Emax at 110 µM in data set [10] is 20%. The maximal response (Emax) at 27.5 µM in [11] was 55%.

With `c1ccc2nc3c(nc2c1)c1ccccc1n3CCN1CCOCC1`, the result in the data set on L929 was Active. Also, in the data set with Calf thymus DNA, the pIC50 came out at 3.78 and the logKa is 5.89. In data set [5], this molecule came in with a CC50 of 1070 µM. The maximal effect (Emax) at 13 µM in data set [3] amounted to 85%. For the same molecule, the maximum response (Emax) at 6.2 µM in data set [12] was 30%.

Turning to `CN(C)CCn1c2ccccc2c2nc3ccccc3nc21`, the outcome in the data set with L929 was Active. In the data set with Calf thymus DNA, the negative logarithm of the IC50 (pIC50) is given as 3.83 and the logKa worked out at 5.93. Moreover, the Emax at 3.1 µM in [13] came to 75%. Besides, the maximal response (Emax) at 25 µM in data set [14] is 100%.

On to `CCN(CC)CCn1c2ccccc2c2nc3ccccc3nc21`, for which the outcome in the data set on L929 was Active. For the same molecule, in the data set with Calf thymus DNA, the negative-log IC50 (pIC50) is given as 3.97 and the logKa was 6.07. The Emax at 6.2 µM in data set [15] came out at 90%. Also, the Emax at 12.5 µM in data set [4] was 100%.

With `c1ccc2nc3c(nc2c1)c1ccccc1n3CCN1CCCC1`, the outcome with L929 was Active. Further, in the data set with Calf thymus DNA, the pIC50 is listed as 3.95 and the logKa came out at 6.05. In addition, in data set [13], the Emax at 3.1 µM amounted to 85%. In addition, in data set [4], the Emax at 12.5 µM came out at 100%.

For the molecule `CCCN(CCC)CCn1c2ccccc2c2nc3ccccc3nc21`, the result in the data set with L929 was Active. In the data set on Calf thymus DNA, this molecule came in with a pIC50 of 3.99 and a logKa of 6.09. For the same molecule, the Emax at 13 µM in [3] was 90%. In addition, the maximal response (Emax) at 12.5 µM in data set [4] came out at 75%.

Consider `CC1CCN(CCn2c3ccc4ccccc4c3c3nc4ccccc4nc32)CC1`, for which, in data set [16], the maximal response (Emax) at 21.4 µM was found to be 51%. The outcome in the data set on L929 was Active. Moreover, in the data set on Calf thymus DNA, the negative-log IC50 (pIC50) was 4.48 and the logKa is 6.58. Further, in data set [5], the CC50 is > 214 µM. Besides, the maximal effect (Emax) at 53 µM in data set [6] is 30%.

For the molecule `c1ccc2nc3c(nc2c1)c1ccccc1n3CCN1CCCCCC1`, the outcome in the data set with L929 was Active. In the data set on Calf thymus DNA, this molecule had a negative logarithm of the IC50 (pIC50) of 4.06 and a logKa of 6.16. For the same molecule, the Emax at 6.2 µM in [15] turned out to be 90%. Besides, the Emax at 50 µM in data set [17] came out at 100%.

As for `CC1CCCCN1CCn1c2ccccc2c2nc3ccccc3nc21` (stereo not drawn), the result with L929 was Active. For the same molecule, in the data set with Calf thymus DNA, the negative-log IC50 (pIC50) is recorded as 4.08 and the logKa was 6.19. For the same molecule, the maximal response (Emax) at 6.2 µM in data set [15] came to 90%. In data set [12], the Emax at 6.2 µM is 77%.

As to `CN1CCN(CCn2c3ccccc3c3nc4ccccc4nc32)CC1`, in the data set with L929, the outcome was Active. In the data set with Calf thymus DNA, this molecule displayed a pIC50 of 3.77 and a logKa of 5.87. Also, in data set [3], the Emax at 13 µM turned out to be 85%. For the same molecule, in [4], the maximal response (Emax) at 12.5 µM was found to be 100%.

As for `c1ccc2nc3c(nc2c1)c1ccccc1n3CCN1CCCCC1`, the outcome with L929 was Active. In the data set on Calf thymus DNA, this molecule gave a pIC50 of 3.91 and a logKa of 6.01. For the same molecule, in data set [13], the maximum response (Emax) at 3.1 µM turned out to be 90%. The Emax at 6.2 µM in data set [12] is 75%.

`CCCCN(CC)CCn1c2ccccc2c2nc3ccccc3nc21`: the result in the data set on L929 was Active. In addition, in the data set with Calf thymus DNA, the pIC50 is 3.91 and the logKa amounted to 6.01. Moreover, the maximal response (Emax) at 3.1 µM in data set [13] turned out to be 50%. Further, the maximal effect (Emax) at 12.5 µM in [4] came to 50%.

Regarding `CCCCN(C)CCn1c2ccccc2c2nc3ccccc3nc21`, the result with L929 was Active. Besides, in the data set on Calf thymus DNA, the pIC50 was 3.82 and the logKa was determined as 5.93. Also, the Emax at 3.1 µM in data set [13] turned out to be 75%. Moreover, in data set [14], the Emax at 25 µM came out at 80%.

`CCCN(CCC)CCn1c2ccc3ccccc3c2c2nc3ccccc3nc21`: in the data set on L929, the result was Active. In the data set on Calf thymus DNA, this molecule came in with a negative logarithm of the IC50 (pIC50) of 4.8 and a logKa of 6.91. Further, in data set [5], the CC50 is > 42.6 µM. Also, in data set [18], the Emax at 3 µM was found to be 16%. Moreover, in [19], the maximal response (Emax) at 21.3 µM amounted to 48%.

With `CCN(CC)CCn1c2ccc3ccccc3c2c2nc3ccccc3nc21`, in the data set on L929, the outcome was Active. Moreover, in the data set on Calf thymus DNA, the pIC50 came to 4.69 and the logKa is 6.79. The molecule further returned a CC50 in [5] of 180 µM. In addition, in [20], the Emax at 113 µM stood at 14%. For the same molecule, in data set [21], the maximal response (Emax) at 7.1 µM was determined as 56%.
